Measurements taken from patent publication US9167822B2, “Antifungal compositions” (DSM IP ASSETS B.V., priority 2012, dated 2015).

Key:
[1] = system: Botrytis cinerea; experiment: In vitro antifungal activity, 96-well microtiter plates; type: cell-based; conditions: 25° C., day 3, 1.25 ppm natamycin, 6.25 ppm isopyrazam or both
Experimental: Subsequently, 100 μl of a Botrytis cinerea suspension prepared in PCB medium was used to inoculated each well with 2.5×10^3 spores/ml. […] After incubation of the microtiter plates at 25° C., the in vitro antifungal activity (%) of the individual active ingredients was assessed by calculating the reduction in mould growth observed in the presence of the active ingredient in comparison to the mould growth observed in the absence of the active ingredient. The expected antifungal activity (E in %) of the active ingredient combination was calculated according to the Colby equation (Colby, 1967): […]

[2] = system: Penicillium italicum; experiment: as above; type: cell-based; conditions: 25° C., day 10, 0.63 ppm natamycin, 25 ppm isopyrazam or both
Experimental: Subsequently, 100 μl of a Botrytis cinerea suspension prepared in PCB medium was used to inoculated each well with 2.5×10^3 spores/ml.
After incubation of the microtiter plates at 25° C., the in vitro antifungal activity (%) of the individual active ingredients was assessed by calculating the reduction in mould growth observed in the presence of the active ingredient in comparison to the mould growth observed in the absence of the active ingredient. The expected antifungal activity (E in %) of the active ingredient combination was calculated according to the Colby equation (Colby, 1967): E=X+Y−[(X·Y)/100] wherein X and Y are the observed antifungal activities (in %) of the individual active ingredients X and Y, respectively. If the observed antifungal activity (O in %) of the combination exceeds the expected antifungal activity (E in %) of the combination and the resulting synergy factor O/E is thus >1.0, the combined application of the active ingredients leads to a synergistic antifungal effect.
Furthermore, Penicillium italicum was used for inoculation.

## CC(C)C1C2CCC1c1c(NC(=O)c3cn(C)nc3C(F)F)cccc12 (centres unmarked) [Isopyrazam, isopyrazam]
[1]
  Observed antifungal activity O (%): 0%
[2]
  Observed antifungal activity O (%): 50%
